Laboratory results as given in patent US11382889B2, “NRF2 activators for the prevention and/or treatment of axonal degeneration” (priority 2018, dated 2022).
Structures can show the parent of a compound that is named as a salt.

How the values were obtained:
Assay type in all cases: in vivo
[1] = tested on: Abcd1− mice spinal cord; experiment: Mitochondrial depletion and bioenergetic failure in Abcd1− mice spinal cord; settings: 12 months of age, DMF 100 mg/kg/day in chow for 4 months
Description: b) NRF2-dependent antioxidative genes (Hmox1, Nqo1 and Gst α 3) expression in WT (n=8), Abcd1^− (n=8) and Abcd1^−+DMF (n=8) mice spinal cord at 12 months of age. Gene expression levels were normalized relative to Rplp0. Quantification is represented as fold change to WT mice. c) Mitochondrial DNA (mtDNA) levels in WT (n=8), Abcd1^− (n=8) and Abcd1^−+DMF (n=8) mice spinal cord at 12 months of age. mtDNA content was measured by quantitative RT-PCR and expressed as the ratio of mtDNA (CytB levels) to nuclear DNA (nDNA, Cebpa levels). Quantification is depicted as fold change to WT mice. d) Sirt1, Pgc-1α, Nrf1 and Tfam expression was measured by quantitative RT-PCR in WT (n=8), Abcd1^− (n=8) and Abcd1^−+DMF (n=8) mice spinal cord at 12 months of age. Gene expression levels were normalized relative to Rplp0. Quantification is depicted as fold change to WT mice. e) ATP levels in WT (n=8), Abcd1^− (n=8) and Abcd1^−+DMF (n=8) mice spinal cord at 12 months of age. Quantification is represented as fold change to WT mice. Data are shown as mean±SD (*p<0.05, **p<0.01, ***p<0.001 after one-way ANOVA test followed by Tukey's post-hoc test; #p<0.05 after one-way ANOVA test followed by Dunnett's post-hoc test; p<0.05, p<0.01 after non-parametric Kruskal-Wallis' test).
Cages contained 3 to 5 animals.
We used two X-ALD mouse models in this study. We characterized the biochemical signs of adult X-ALD in Abcd1^− mice at 12 months of age. These mice show biochemical signs of pathology, including oxidative stress and energetic homeostasis impairment, before the first clinical signs of AMN-like pathology (axonopathy and locomotor impairment) appear at 20 months.
For biochemical analysis, we killed the mice and stored the tissues at −80° C. after snap-freezing them in liquid nitrogen. For histological analysis, spinal cord was harvested from 18-month-old mice after perfusing them with 4% paraformaldehyde (PFA; Sigma-Aldrich, Ref. 441244) in 0.1 M phosphate buffer pH 7.4. […]

[2] = tested on: Abcd1−/Abcd2−/− (DKO) mice spinal cord; experiment: Immunohistological analysis of axonal pathologies in Abcd1−/Abcd2−/− (DKO) mice spinal cord; settings: 18 months of age, DMF 100 mg/kg in chow for 6 months
Description: (§1) a-x) Immunohistological analysis of axonal pathologies performed in 18-month-old WT, Abcd1^−/Abcd2^−/− (DKO) and Abcd1^−/Abcd2^−/− mice treated with DMF (DKO+DMF) (n=5 per genotype and condition). Spinal cord immunohistological sections were processed for (a-c) Iba1, (d-f) GFAP, (g-i) Synaptophysin, (j-l) APP, (m-o) Sudan black, (p-r) 8-oxo-dG, (s-u) CYT C and (v-x) SMI-32 immunostaining. Representative images for (a, d, g, j, m, p, s, v) WT, (b, e, h, k, n, q, t, w) DKO, and (c, f, i, l, o, r, u, x) DKO+DMF are shown. Scale bars=25 μm (a-r) and […] (s-x). y) Quantification of synaptophysin and APP accumulations in spinal cord immunohistological sections of WT (n=5), DKO (n=5) and DKO+DMF (n=5) mice. z) Bar-cross and treadmill tests performed on 18-month-old WT (n=14), Abcd1^−//Abcd2^−/− (DKO) (n=16) and Abcd1^−//Abcd2^−/− mice treated with DMF (DKO+DMF) (n=14). […] Values are expressed as mean±SD (*p<0.05, **p<0.01, ***p<0.001 after one-way ANOVA test followed by Tukey's post hoc test; p<0.05, p<0.001 after non-parametric Kruskal-Wallis' test).
(§2) To address the therapeutic effect of DMF, we assessed the clinical signs of AMN in Abcd1^−/Abcd2^−/− (DKO) mice, which display increased VLCFA accumulation in the spinal cord, higher levels of oxidative damage to proteins, and a more severe AMN-like pathology with an earlier onset at 12 months of age.
For biochemical analysis, we killed the mice and stored the tissues at −80° C. after snap-freezing them in liquid nitrogen. For histological analysis, spinal cord was harvested from 18-month-old mice after perfusing them with 4% paraformaldehyde (PFA; Sigma-Aldrich, Ref. 441244) in 0.1 M phosphate buffer pH 7.4. Histological and behavioural tests were performed in a blind way with respect to the animal's genotype and for the treatment administered.
To evaluate the effect of DMF on axonal degeneration and locomotor impairment in X-ALD, Abcd1^−/Abcd2^−/− mice (DKO) were fed with chow including DMF (100 mg/kg).

[3] = tested on: Abcd1−/Abcd2−/− (DKO) mice; experiment: Bar cross and treadmill tests in Abcd1−/Abcd2−/− (DKO) mice; settings: 18 months of age, end of treatment, DMF 100 mg/kg in chow for 6 months
Description: as §1
as §2, with “age. […]” for “age.”

Structure (SMILES): COC(=O)/C=C/C(=O)OC [DMF, dimethyl fumarate]
- mitochondrial DNA (mtDNA) levels ([1]; Abcd1− mouse spinal cord): normalized
- mitochondrial biogenesis genes mRNA expression (Sirt1, Pgc-1α, Nrf1, Tfam) ([1]; Abcd1− mouse spinal cord): normalized
- ATP levels ([1]; X-ALD (Abcd1−) mouse spinal cord): normalized
- accumulation of APP in axons ([2]; DKO mice spinal cord): prevented the accumulation
- accumulation of synaptophysin in axons ([2]; DKO mice spinal cord): prevented the accumulation
- astrocytosis (GFAP) ([2]; DKO mice spinal cord): reversed
- microgliosis (Iba1) ([2]; DKO mice spinal cord): reversed
- mitochondrial levels (CYT C staining in motor neurons) ([2]; DKO mice spinal cord): improved
- motor neurons health (SMI-32 staining) ([2]; DKO mice spinal cord): improved
- oxidative damage to DNA (8-oxo-dG staining) ([2]; DKO mice spinal cord): reduced
- myelin debris along the spinal cord (Sudan black) ([2]; DKO mice): halted the appearance
- bar cross test (number of slips and time to cross the bar) [3]: behaved similar to WT mice
- treadmill test (number and duration of shocks) [3]: improved the performance of DKO mice in this test, up to the level of WT mice
